# Measured values reported in article PMC9421654, “Discovery of Substituted Di(pyridin-2-yl)-1,2,4-thiadiazol-5-amines as Novel Macrofilaricidal Compounds for the Treatment of Human Filarial Infections” (Journal of Medicinal Chemistry, 2022).
# Where two headings read alike, the source gives them in different places.
# Experiments:
# [1] = system: O. gutturosa adult male worms; test: O. gutturosa adult worm ex vivo assay, motility; assay type: cell-based, Onchocerca gutturosa; conditions: Onchocerca gutturosa
# Description: (§1) Activity against O. gutturosa adult male worms was determined using reported procedures.[7] The EC50 values were calculated using Microsoft Office Excel (2010) data analysis software. The tested compound is considered active when a motility reduction of ≥50% is observed by comparison to the untreated controls. O. gutturosa adult male worms were obtained postmortem from freshly slaughtered cattle. The worms were dissected from the nuchal ligament connective tissues of naturally infected cattle in Gambia, West Africa; the material was purchased from the International Trypanotolerance Centre, Banjul, from local butchers for use in this study. The adult worms were transferred individually to each well of a sterile 24-well (2 mL) plate (Thermo Fisher Scientific, UK) and maintained for at least 24 h in culture before use. The medium used was a minimum essential medium (MEM) with Earl’s salts and L-glutamine (Life Technologies Ltd., UK) supplemented with 10% heat inactivated newborn calf serum (Life Technologies Ltd., UK), 200 units/mL penicillin, 200 μg/mL streptomycin, and 0.5 μg/mL amphotericin B (Life Technologies Ltd., UK). Only normally active worms were used for the test, and all assays were conducted at 37 °C and 5% CO2. The positive control drug used was Immiticide (melarsomine dihydrochloride, Merial, USA). Known amounts of compounds were solubilized in 1 mL of DMSO. All stock solutions were allowed to stand at room temperature prior to use. The test items (four worms/drug concentration) were compared to untreated controls (six worms) and the positive control (two worms/drug concentration). Drug efficacy was assessed by the measurement of mean worm motility scores on a scale of 0 (immotile) to 10 (maximum) every 24 h, terminating at 120 h, using an Olympus inverted microscope. The results are reported as a percentage of the maximum score obtainable (100%) by calculating the motility index scores. The test drug is considered active when a motility reduction of ≥50% is observed by comparison to the untreated controls. […] In addition, biochemical evaluation of worm viability was assessed using MTT/formazan colorimetry. The MTT assay was carried out after the last motility reading (120 h). Single intact worms were placed in each well of a 48-well plate (Thermo Fisher Scientific, UK) containing 0.5 mL of 0.5 mg/mL MTT (Sigma, UK) in PBS solution and then incubated for 30 min at 37 °C. The worms were removed, blotted carefully, and individually transferred to separate wells of a 96-well microtiter plate, each containing 200 μL of DMSO to solubilize the formazan. After 1 h, the plate was gently agitated to disperse the color evenly and the absorbance value (optical density, OD) of the resulting formazan solution was determined at 490 nm using an absorbance microplate reader (Biotek ELx800, Thermo Fisher Scientific, UK). The results are expressed as the mean OD per drug concentration. Inhibition of formazan formation is correlated with worm damage or death.
# Data S1. Onchocerca gutturosa adult male worms EC 50 Curves
# Plotted using Graph Pad Prism 7.03, least square original fit, sigmoidal, 4PL
# The measurement of mean worm motility every 24 h, terminating at 120 h, serial 1 in 4 drug dilutions to find
# activity endpoint and produce EC50 values (geomean, n=2) for motility reduction. (4 worms per drug […]
# [2] = Kinetic solubility measurement; assay type: physicochemical; conditions: 10 mM DMSO stock solutions
# Description: Kinetic Solubility Measurement: The standard kinetic solubility assay runs on […] concentration range using 10 mM DMSO stock solutions for plating. Single point calibration assay runs in duplicates. Concentration of standards: […] DMSO solutions prepared by diluting 10 mM stock, solution with DMSO. Concentration of samples: 200 µM, 4 µl 10 mM DMSO stock solution diluted with the appropriate buffer to […]. DMSO content:
# 2%. Buffers: pH=7.4 (0.1M Potassium phosphate buffer, diluted from Sigma 1M P3619-1GA to 0.1 M with MilliQ water), pH=2.2 (0.1M- NaCl pH adjusted with 0.1N HCL), pH=6.8 (0.1M - KH2PO4/K2HPO4), pH=5 (4 .04g of NaOH (Pellets), 8.65g of Glacial Acetic Acid, 11.874g of NaCl. In in 1 liter water. Adjusted to pH to 5 with either 1N NaOH or 1N HCl). The controls were plated from the standard 10 mM DMSO stock and run on the standard concentration (200µM) range of the assay. Incubation time: 24 hours shaking at […] in Millipore Multiscreen HTS filter plate for Aqueous Solubility Assay (MSSLBPC50), on room temperature.
# After incubation time filtration with positive pressure manifold was performed. […]
# [3] = LogD measurement (octanol-water); assay type: physicochemical
# Description: LogD Measurement: Measurement of octanol-water distribution coefficient of samples using a […]
# stock solutions for plating. Aqueous Phase: 100mM Buffer, pH=7.4 (0.1M Potassium phosphate buffer, diluted from Sigma 1M P3619-1GA to 0.1 M with MilliQ water), pH=2.2 (0.1M- NaCl pH adjusted with 0.1N HCL), pH=6.8 (0.1M - KH2PO4/K2HPO4), pH=5 (4 .04g of NaOH (Pellets), 8.65g of Glacial Acetic Acid, 11.874g of NaCl. In in 1 liter water. Adjusted to pH to 5 with either 1N NaOH or 1N HCl); Organic Phase: 1-Octanol (O021). Sample Concentration:
# 1000uM, […] 10 mM DMSO stock solution diluted in […] of organic Phase and […] of aqueous Phase. DMSO content: 10%. The controls were plated from the standard 10 mM DMSO stock and run on the standard concentration ([…]) range of the assay. Incubation time:
# Sonication for 30 minutes followed by 24 hours shaking at 750 rpm in 96 deep well plate (VWR
# [4] = Liver S9 metabolic stability assay, rat; assay type: in vitro ADME; conditions: 3 μM, 60 min
# Description: (§2) Liver S9 Metabolic Stability Assay: Incubations were performed at 37 °C in a Dubnoff Shaking water bath using 2 mL 96-well incubation plates. Rat and human S9 protein concentrations were 0.75 mg/ml and 1.2 mg/ml, respectively. The final concentrations of NADPH, UDPGA, and GSH were 1, 0.5, and 2.5 mM, and the final concentration of PAPS was 0.05 mg/ml. Substrate concentrations were 3µM, incubation time was 60 minutes, and all tests were done in triplicate. The incubation was conducted in 200 mM Tris buffer containing 2 mM magnesium chloride, pH=7.4 and the total incubation volume was 0.5 ml. Samples were analysed via LC-MS/MS and reported as percentage remaining after incubation for 60 minutes. […]
# [5] = Liver S9 metabolic stability assay, human; assay type: in vitro ADME; conditions: 3 μM, 60 min
# Description: as §2
# [6] = system: O. gutturosa adult male worms; test: O. gutturosa adult worm ex vivo assay, MTT/formazan viability; assay type: cell-based, Onchocerca gutturosa; conditions: supplement, SD in brackets in the PDF table, read-out: O. gutturosa EC50 (uM) MTT viability inhibition
# Description: as §1
# [7] = read-out: O. gutturosa EC50 μM (SD), ex vivo adult worm motility reduction, SD in brackets
# [8] = supplement, read-out: measured logD
# [9] = read-out: O. gutturosa EC50 (uM) motility inhibition, supplement, SD in brackets in the PDF table
Structure (SMILES),"EC50 [1, 7] [µM]",solubility kinetic at 24 h [2] [µM],"logD at 24 h ([3]; pH 7.4, read-out: logD)","logD at 24 h [3, 8]",Rat S9 metabolic stability [4] [% remaining],Human S9 metabolic stability [5] [% remaining],"EC50 [1, 9] [µM]",EC50 ([6]; Onchocerca gutturosa) [µM],EC50 [6] [µM]
"CN1CCC(Oc2ccc(Nc3nc(-c4ccccn4)ns3)nc2)CC1 [Compound 36, N-(5-((1-Methylpiperidin-4-yl)oxy)pyridin-2-yl)-3-(pyridin-2-yl)-1,2,4-thiadiazol-5-amine]",1.12,193,1.7,1.7,99,88,–,–,–
Cc1cccnc1Nc1nc(-c2cc(C3CCN(C)CC3)ccn2)ns1 [Compound 22],0.2,184,2,2,81,78,0.198,13.1,–
"Cc1cccnc1Nc1nc(-c2cnc(OC(C)C)cn2)ns1 [Compound 39, 3-(5-Isopropoxypyrazin-2-yl)-N-(3-methyl-2-pyridyl)-1,2,4-thiadiazol-5-amine]",0.29,2.1,3.1,3.1,74,81,0.286,1.1,–
"COc1cccnc1Nc1nc(-c2cc(C)ccn2)ns1 [Compound 29, N-(3-Methoxy-2-pyridyl)-3-(4-methyl-2-pyridyl)-1,2,4-thiadiazol-5-amine]",0.12,26.5,2.1,2.1,70,72,0.121,0.88,–
"Cc1nccnc1Nc1nc(-c2ccc(OC(C)C)cn2)ns1 [Compound 41, 3-(5-Isopropoxy-2-pyridyl)-N-(3-methylpyrazin-2-yl)-1,2,4-thiadiazol-5-amine]",0.06,24.5,2.7,2.7,100,94,0.058,< 0.19,–
"c1ccc(Nc2nc(-c3ccccn3)ns2)nc1 [Compound 9, N,3-Di(pyridin-2-yl)-1,2,4-thiadiazol-5-amine]",0.16,8.2,1.8,1.8,83,83,0.155,1.1,–
"Cc1cccnc1Nc1nc(-c2ccc(OC3CCOCC3)cn2)no1 [Compound 6, N-(3-Methylpyridin-2-yl)-3-(5-((tetrahydro-2H-pyran-4-yl)oxy)pyridin-2-yl)-1,2,4-oxadiazol-5-amine]",0.07,57.5,–,1.7,85,98,0.072,4.1,4.06
CC(C)Oc1ccc(-c2nsc(Nc3ncc(C(F)(F)F)cc3C(=O)N(C)C)n2)nc1 [Compound 57],0.58,3.27,3.2,3.2,–,–,0.578,1.3,–
CC(=O)N(C)c1cc(C(F)(F)F)cnc1Nc1nc(-c2ccccn2)ns1 [Compound 53],0.05,4.05,2.2,2.2,–,–,0.047,0.15,–
"CNC(=O)c1cccnc1Nc1nc(-c2ccc(OC(C)C)cn2)ns1 [Compound 60, 2-((3-(5-Isopropoxypyridin-2-yl)-1,2,4-thiadiazol-5-yl)amino)-N-methylnicotinamide]",0.67,10.2,1.8,1.8,–,–,–,2.4,–
